{
  "source": "patent US20190365784A1",
  "about": "“USE OF BRASSINOSTEROID ANALOGS FOR THE TREATMENT OF DERMAL DISORDERS BY SELECTIVELY MODULATING LIVER X RECEPTORS (LXR) AND DERMAL DISEASE TREATMENT BY BRASSINOSTEROID ANALOGS ACTING AS SELECTIVE LIVER X RECEPTOR (LXR) MODULATORS” (CONSEJO NACIONAL DE INVESTIGACIONES CIENTÍFICAS Y TÉCNICAS …, priority 2015, published 2019)",
  "assay_type_in_all_cases": "in vivo",
  "key": {"[1]": {"assay": "Liver weight and gross morphology (hepatic steatosis) in C57BI mice after 5 days i.p. treatment", "conditions": "male C57BI mice; Compound I 10 mg/kg i.p. daily for 5 days", "description": "(§1) Administration of synthetic LXR agonists such as T0901317 induces a marked increment of liver lipogenesis that leads to hepatic steatosis and plasma hypertriglyceridemia.\n(§2) Male C57BI mice received daily for 5 days intraperitoneal injections containing either 10 mg Compound I/kg, or 5 mg T0901317/kg, or vehicle [90% (v/v) DMSO in apyrogenic sterile water]. On the sixth day of the assay, the animals were fasted for 4 h before decapitation. Blood plasma was obtained for the determination of total cholesterol, HDL-cholesterol and triglyceride contents. The livers were resected, and their weights and colors used as gross markers of increased liver triglyceride contents."}, "[2]": {"assay": "Plasma total cholesterol, HDL-cholesterol and triglyceride in C57BI mice after 5 days i.p. treatment", "conditions": "male C57BI mice; Compound I 10 mg/kg i.p. daily for 5 days", "description": "as §1, §2"}, "[3]": {"system": "imiquimod-induced skin lesions", "assay": "Imiquimod-induced psoriasis model in mice: clinical signs and dorsal skin histopathology", "parameters": "key to Hyperkeratosis, protective effect / Epidermal serocellular crust, protective effect / Acanthosis, protective effect / Dermal inflammatory infiltrates, protective effect: the (+) sign represents the presence of a protective effect; a (−) sign represents the absence of protective effect", "conditions": "for Acanthosis (0-4), group mean score of dorsal skin / Basliar papillae (0-4), group mean score of dorsal skin / Dermal inflammatory infiltrates (0-4), group mean score of dorsal skin / Dilated tortuous capillaries (0-4), group mean score of dorsal skin / Epidermal micro-abscesses (0-4), group mean score of dorsal skin / Epidermal serocellular rust (0-4), group mean score of dorsal skin / Hyperkeratosis (0-4), group mean score of dorsal skin / Mean Global Score, dorsal skin / Parakeratosis (0-4), group mean score of dorsal skin: psoriatic mice; for Acanthosis (0-4), group mean score of dorsal skin / Basliar papillae (0-4), group mean score of dorsal skin / Dermal inflammatory infiltrates (0-4), group mean score of dorsal skin / Dilated tortuous capillaries (0-4), group mean score of dorsal skin / Epidermal micro-abscesses (0-4), group mean score of dorsal skin / Epidermal serocellular rust (0-4), group mean score of dorsal skin / Hyperkeratosis (0-4), group mean score of dorsal skin / Mean Global Score, dorsal skin / Parakeratosis (0-4), group mean score of dorsal skin / severity of microscopic alterations of back skin (histopathology): QD 9 days", "description": "To test whether Compound I might ameliorate the signs of psoriasis, we topically administered Compound I to imiquimod-induced skin lesions in mice. The imiquimod mouse model of psoriasis-like skin inflammation is characterized by lesions that show augmented epidermal cell proliferation, abnormal keratinocyte differentiation, neutrophil accumulation in epidermal microabcesses, and neoangiogenesis.\nFor this study, thirty two 8-week old female Balbc/J mice were housed […] in positively ventilated polysulfonate cages with HEPA filtered air at a density of 4 mice per cage. The animal room was lighted entirely with artificial fluorescent lighting, with a controlled 12 h light/dark cycle (6 am to 6 pm light). The normal temperature and relative humidity ranges in the animal rooms were 22±4° C. and 50±15%, respectively. The animal rooms were set to have a minimum of 15 air exchanges per hour. Filtered tap water, acidified to a pH of 2.5 to 3.0, and standard rodent chow were provided ad libitum. After 1 week of acclimation mice were randomized into 4 groups (n=8/each) as shown below (Table 1).\n1. IMQ induction: On day 0 all grouped mice received a topical dose of 62.5 mg of IMQ cream (5%) on the shaved back for 6 consecutive days. (Day 0 to Day 5)\n3. Mice were scored for clinical parameters of disease based on degree of erythema, scaling and thickening independently on a scale of 0-4. 0=none; 1=slight; 2=moderate; 3=moderate to severe: 4=severe. These observations were recorded on day 0, 2, 4, 6, and 8. On the same days, back skin thickness was measured with calipers.\n5. Mice were sacrificed on day 10 by CO2 asphyxiation.\n6. A part of the back skin was harvested and fixed for histology. Slides were processed, stained with H&E for histology assessment.\nDorsal skin sections were evaluated histopathologically for evidence of key features of psoriasis, such as parakeratosis, hyperkeratosis (thickening of the stratum corneum), acanthosis (diffuse thickening of the stratum spinosum of the skin), epidermal serocellular crusts, epidermal microabscesses, basilar papillae, dermal inflammatory infiltrates and dilated tortuous capillaries (Table 2. Histopathological scoring system and definition used in the Imiquimod psoriasis model)."}, "[4]": {"conditions": "0.1% (w/v) Compound I vs 0.1% (w/v) Clobetasol as printed"}, "[5]": {"conditions": "topical 0.10%, summary of Table 3"}},
  "note": "Marks after values point to notes of the source that are not given here.",
  "data": [
    {"smiles": "CC[C@@H](C(C)C)[C@H](O)[C@@H](O)[C@@H](C)[C@H]1CC[C@H]2[C@@H]3CCC4=CC(=O)CC[C@]4(C)[C@H]3CC[C@]12C", "note": "[Compound I, (22S,23S)-22,23-dihydroxystigmast-4-en-3-one]", "values": [
      {"measurement": "liver (hepatic) steatosis", "setting": "[1]", "result": "no signs"},
      {"measurement": "hypertriglyceridemia", "setting": "[2]", "result": "no signs"},
      {"measurement": "epidermal sero-cellular crust reduced relative to Clobetasol-treated mice", "setting": "[3]; [4]", "result": 50, "unit": "%"},
      {"measurement": "hyperkeratosis reduced relative to Clobetasol-treated mice", "setting": "[3]; [4]", "result": 50, "unit": "%"},
      {"measurement": "global response score of dorsal skin, lower vs. vehicle-treated animals", "setting": "[3]; Compound I 0.1% topical, 9 days", "result": "~26", "unit": "%"},
      {"measurement": "back skin thickening (calipers)", "setting": "[3]; after 9 days topical, Compound I 0.05% and 0.1% (w/v), clobetasol 0.05% cream", "result": "None of the assayed Compound I's doses prevented back skin thickening"},
      {"measurement": "erythema reduction relative to vehicle-treated mice", "setting": "[3]; day 8, both Compound I doses 0.05% and 0.1% (w/v), topical", "result": 50, "unit": "%"},
      {"measurement": "skin erythema (clinical score 0-4, in words)", "setting": "[3]; day 8, topical QD 9 days, both Compound I doses 0.05% and 0.1% (w/v), clobetasol 0.05% cream", "result": "slight"},
      {"measurement": "scaling (clinical score 0-4, in words)", "setting": "[3]; day 8, topical QD 9 days, both Compound I doses, clobetasol 0.05% cream", "result": "no improvement"},
      {"measurement": "Acanthosis (0-4), group mean score of dorsal skin", "setting": "[3]; topical 0.05%", "result": 2.4},
      {"measurement": "Basliar papillae (0-4), group mean score of dorsal skin", "setting": "[3]; topical 0.05%", "result": 0.0},
      {"measurement": "Dermal inflammatory infiltrates (0-4), group mean score of dorsal skin", "setting": "[3]; topical 0.05%", "result": 2.0},
      {"measurement": "Dilated tortuous capillaries (0-4), group mean score of dorsal skin", "setting": "[3]; topical 0.05%", "result": 0.0},
      {"measurement": "Epidermal micro-abscesses (0-4), group mean score of dorsal skin", "setting": "[3]; topical 0.05%", "result": 0.0},
      {"measurement": "Epidermal serocellular rust (0-4), group mean score of dorsal skin", "setting": "[3]; topical 0.05%", "result": 0.4},
      {"measurement": "Hyperkeratosis (0-4), group mean score of dorsal skin", "setting": "[3]; topical 0.05%", "result": "1.3*"},
      {"measurement": "Mean Global Score, dorsal skin", "setting": "[3]; topical 0.05%", "result": 6.4},
      {"measurement": "Parakeratosis (0-4), group mean score of dorsal skin", "setting": "[3]; topical 0.05%", "result": 0.4},
      {"measurement": "Acanthosis (0-4), group mean score of dorsal skin", "setting": "[3]; topical 0.10%", "result": 2.1},
      {"measurement": "Basliar papillae (0-4), group mean score of dorsal skin", "setting": "[3]; topical 0.10%", "result": 0.0},
      {"measurement": "Dermal inflammatory infiltrates (0-4), group mean score of dorsal skin", "setting": "[3]; topical 0.10%", "result": 1.5},
      {"measurement": "Dilated tortuous capillaries (0-4), group mean score of dorsal skin", "setting": "[3]; topical 0.10%", "result": 0.0},
      {"measurement": "Epidermal micro-abscesses (0-4), group mean score of dorsal skin", "setting": "[3]; topical 0.10%", "result": 0.0},
      {"measurement": "Epidermal serocellular rust (0-4), group mean score of dorsal skin", "setting": "[3]; topical 0.10%", "result": "0.3†"},
      {"measurement": "Hyperkeratosis (0-4), group mean score of dorsal skin", "setting": "[3]; topical 0.10%", "result": "0.9**"},
      {"measurement": "Mean Global Score, dorsal skin", "setting": "[3]; topical 0.10%", "result": 4.9},
      {"measurement": "Parakeratosis (0-4), group mean score of dorsal skin", "setting": "[3]; topical 0.10%", "result": 0.0},
      {"measurement": "severity of microscopic alterations of back skin (histopathology)", "setting": "[3]; topical 0.05%", "result": "slightly lower severity"},
      {"measurement": "severity of microscopic alterations of back skin (histopathology)", "setting": "[3]; topical 0.10% (w/v)", "result": "lower than in samples from vehicle-treated psoriatic controls and 0.05% (w/v) Compound I-treated mice"},
      {"measurement": "Acanthosis, protective effect", "setting": "[3]; [5]", "result": "−"},
      {"measurement": "Dermal inflammatory infiltrates, protective effect", "setting": "[3]; [5]", "result": "−"},
      {"measurement": "Epidermal serocellular crust, protective effect", "setting": "[3]; [5]", "result": "+"},
      {"measurement": "Hyperkeratosis, protective effect", "setting": "[3]; [5]", "result": "+"}
    ]}
  ]
}
